In patent publication US11339161B2, “Triazolo pyridines as modulators of gamma-secretase” (Boehringer Ingelheim International GmbH, priority 2017, dated 2022):
Where two headings read alike, the source gives them in different places.

Tests used:
[1] = system: Aβ42 production; test: Inhibition of Aβ42 production in H4 neuroglioma cells stably expressing human APP695 (MSD electrochemiluminescence); type: cell-based; settings: H4 neuroglioma cells expressing human APP695, 22 hours incubation; Table 4a
[2] = system: Aβ total; test: Aβ total levels in H4 neuroglioma cells stably expressing human APP695 (MSD electrochemiluminescence); type: cell-based; settings: selectivity ratio vs. Aβtotal, Table 4a
Summary of the method: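 H4 cells expressing human APP695, plated near confluency, exposed 22 h at 37 °C to compounds over 30 μM–0.1 nM (0.5% DMSO final). Supernatant Aβ total quantified by MSD electrochemiluminescence immunoassay.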

[3] = target: FGFR1 (Homo sapiens, UniProt P11362); test: Z'-LYTE SelectScreen biochemical kinase assay FGFR1
Source text: (§1) Thermo Fisher Scientific SelectScreen™ Biochemical Kinase Profiling Service Z′-LYTE™ Screening Protocol and Assay Conditions Assay Theory
(§2) The […] biochemical assay employs a fluorescence-based, coupled-enzyme format and is based on the differential sensitivity of phosphorylated and non-phosphorylated peptides to proteolytic cleavage. The peptide substrate is labeled with two fluorophores—one at each end—that make up a FRET pair. In the primary reaction, the kinase transfers the gamma-phosphate of ATP to a single tyrosine, serine or threonine residue in a synthetic FRET-peptide. In the secondary reaction, a site-specific protease recognizes and cleaves non-phosphorylated FRET-peptides. Phosphorylation of FRET-peptides suppresses cleavage by the Development Reagent. Cleavage disrupts FRET between the donor (i.e., coumarin) and acceptor (i.e., fluorescein) fluorophores on the FRET-peptide, whereas uncleaved, phosphorylated FRET-peptides maintain FRET. A ratiometric method, which calculates the ratio (Emission Ratio=Coumarin emission (445 nm)/Fluorescein emission (520 nm)) of donor emission to acceptor emission after excitation of the donor fluorophore at 400 nm, is used to quantitate reaction progress, as shown in the equation below. A significant benefit of this ratiometric method for quantitating reaction progress is the elimination of well-to-well variations in FRET-peptide concentration and signal intensities. As a result, the assay yields very high Z′-factor values (>0.7) at a low percent phosphorylation. Both cleaved and uncleaved FRET-peptides contribute to the fluorescence signals and therefore to the Emission Ratio. The extent of phosphorylation of the FRET-peptide can be calculated from the Emission Ratio. The Emission Ratio will remain low if the FRET-peptide is phosphorylated (i.e., no kinase inhibition) and will be high if the FRET-peptide is non-phosphorylated (i.e., kinase inhibition).
(§3) The Test Compounds are screened in 1% DMSO (final) in the well. For 10 point titrations, 3-fold serial dilutions are conducted from the starting concentration of the customer's choosing.
(§4) All Peptide/Kinase Mixtures are diluted to a 2× working concentration in the appropriate Kinase Buffer (see section Kinase Specific Assay Conditions for a complete description).
(§5) All ATP Solutions are diluted to a 4× working concentration in Kinase Buffer (50 mM HEPES pH 7.5, 0.01% BRIJ-35, 10 mM MgCl2, 1 mM EGTA). ATP Km apparent is previously determined using a Z″-LYTE assay.
(§6) The Development Reagent is diluted in Development Buffer (see section Kinase-Specific Assay Conditions—Direct and Cascade for a complete description).
(§7) Bar-coded Corning, low volume NBS, black 384-well plate (Corning Cat. #4514) • 1. 100 nL—100× Test Compound in 100% DMSO • 2. 2.4 μL—Kinase buffer • 3. 5 μL—2× Peptide/Kinase Mixture • 4. 2.5 μL—4×ATP Solution • 5. 30—second plate shake • 6. 60—minute Kinase Reaction incubation at room temperature • 7. 5 μL—Development Reagent Solution • 8. 30—second plate shake • 9. 60—minute Development Reaction incubation at room temperature • 10. Read on fluorescence plate reader and analyze the data Z′-LYTE Assay Controls
(§8) SelectScreen Kinase Profiling Service uses XLfit from IDBS. The dose response curve is curve fit to model number 205 (sigmoidal dose-response model).
The 2×FGFR1/Tyr 04 mixture is prepared in 50 mM HEPES pH 7.5, 0.01% BRIJ-35, 10 mM MgCl2, 4 mM MnCl2, 1 mM EGTA, 2 mM DTT. The final 10 μL Kinase Reaction consists of 0.44-2.45 ng FGFR1 and 2 μM Tyr 04 in 50 mM HEPES pH 7.5, 0.01% BRIJ-35, 10 mM MgCl2, 2 mM MnCl2, 1 mM EGTA, 1 mM DTT. After the 1 hour Kinase Reaction incubation, 5 μL of a 1:64 dilution of Development Reagent B is added.

[4] = target: RET (Homo sapiens, UniProt P07949); test: Z'-LYTE SelectScreen biochemical kinase assay RET
Source text: as §1, §2, §3, §4, §5, §6, §7, §8
(§9) The 2×RET/Tyr 02 mixture is prepared in 50 mM HEPES pH 7.5, 0.01% BRIJ-35, 10 mM MgCl2, 1 mM EGTA. The final 10 μL Kinase Reaction consists of 0.49-3.64 ng RET and 2 μM Tyr 02 in 50 mM HEPES pH 7.5, 0.01% BRIJ-35, 10 mM MgCl2, 1 mM EGTA. After the 1 hour Kinase Reaction incubation, 5 μL of a 1:128 dilution of Development Reagent A is added.

[5] = target: RPS6KB1 (p70S6K) (Homo sapiens, UniProt P23443); test: Z'-LYTE SelectScreen biochemical kinase assay RPS6KB1 (p70S6K)
Source text: as §1, §2, §3, §4, §5, §6, §7, §8
as §9, with “2×RPS6 KB1 (p70S6K)/Ser/Thr 07” for “2×RET/Tyr 02”, “2.87-17.7” for “0.49-3.64”, “RPS6 KB1 (p70S6K)” for “RET”, “Ser/Thr 07” for “Tyr 02”, “1:45000” for “1:128”

[6] = 10 μmolar compound concentration, ATP at Km app, read-out: FGFR1 inhibition
[7] = read-out: % Inhibition mean FGFR1
[8] = 10 μmolar compound concentration, ATP at Km app, read-out: RET inhibition
[9] = read-out: % Inhibition mean RET
[10] = 10 μmolar compound concentration, ATP at Km app, read-out: RPS6KB1 (p70S6K) inhibition
[11] = read-out: % Inhibition mean RPS6KB1 (p70S6K)

Chain of RPS6KB1 (p70S6K) (P23443 whole entry): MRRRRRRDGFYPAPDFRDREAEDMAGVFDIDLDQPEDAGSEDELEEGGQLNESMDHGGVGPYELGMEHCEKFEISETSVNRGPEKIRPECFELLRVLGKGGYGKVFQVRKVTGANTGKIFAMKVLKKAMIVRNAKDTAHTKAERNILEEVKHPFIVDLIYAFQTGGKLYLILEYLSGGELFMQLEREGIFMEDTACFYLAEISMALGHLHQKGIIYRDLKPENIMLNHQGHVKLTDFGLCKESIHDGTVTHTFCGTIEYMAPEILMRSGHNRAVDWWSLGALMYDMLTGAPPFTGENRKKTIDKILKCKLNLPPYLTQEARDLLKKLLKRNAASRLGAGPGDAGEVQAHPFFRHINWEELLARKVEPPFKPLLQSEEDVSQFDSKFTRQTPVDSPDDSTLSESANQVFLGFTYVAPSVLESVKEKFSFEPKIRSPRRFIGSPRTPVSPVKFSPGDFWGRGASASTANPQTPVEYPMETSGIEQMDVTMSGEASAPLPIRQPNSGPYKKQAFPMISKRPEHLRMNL
Chain of FGFR1 (P11362 22-822): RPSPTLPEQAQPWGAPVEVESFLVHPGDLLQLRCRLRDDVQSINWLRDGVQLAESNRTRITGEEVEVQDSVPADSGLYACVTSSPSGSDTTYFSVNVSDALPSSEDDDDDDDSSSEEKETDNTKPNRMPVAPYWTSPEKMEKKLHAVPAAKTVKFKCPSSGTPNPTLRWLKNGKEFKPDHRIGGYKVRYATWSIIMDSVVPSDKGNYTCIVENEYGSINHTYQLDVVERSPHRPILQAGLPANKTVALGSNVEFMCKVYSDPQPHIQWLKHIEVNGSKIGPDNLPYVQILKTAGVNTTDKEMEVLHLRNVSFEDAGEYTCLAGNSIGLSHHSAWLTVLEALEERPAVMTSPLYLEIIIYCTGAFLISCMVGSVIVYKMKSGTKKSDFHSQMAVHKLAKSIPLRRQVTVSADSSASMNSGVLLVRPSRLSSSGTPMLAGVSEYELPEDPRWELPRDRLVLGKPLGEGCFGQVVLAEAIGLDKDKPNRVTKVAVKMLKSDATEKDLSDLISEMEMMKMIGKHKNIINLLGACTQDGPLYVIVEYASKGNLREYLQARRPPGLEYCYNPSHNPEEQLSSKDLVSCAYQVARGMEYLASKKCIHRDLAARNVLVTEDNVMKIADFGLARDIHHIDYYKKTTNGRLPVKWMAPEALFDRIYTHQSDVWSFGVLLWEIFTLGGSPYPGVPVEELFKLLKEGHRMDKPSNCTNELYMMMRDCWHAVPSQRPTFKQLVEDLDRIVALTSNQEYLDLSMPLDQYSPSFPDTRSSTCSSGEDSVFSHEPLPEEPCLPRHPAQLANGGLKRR
Chain of RET (P07949 29-1114): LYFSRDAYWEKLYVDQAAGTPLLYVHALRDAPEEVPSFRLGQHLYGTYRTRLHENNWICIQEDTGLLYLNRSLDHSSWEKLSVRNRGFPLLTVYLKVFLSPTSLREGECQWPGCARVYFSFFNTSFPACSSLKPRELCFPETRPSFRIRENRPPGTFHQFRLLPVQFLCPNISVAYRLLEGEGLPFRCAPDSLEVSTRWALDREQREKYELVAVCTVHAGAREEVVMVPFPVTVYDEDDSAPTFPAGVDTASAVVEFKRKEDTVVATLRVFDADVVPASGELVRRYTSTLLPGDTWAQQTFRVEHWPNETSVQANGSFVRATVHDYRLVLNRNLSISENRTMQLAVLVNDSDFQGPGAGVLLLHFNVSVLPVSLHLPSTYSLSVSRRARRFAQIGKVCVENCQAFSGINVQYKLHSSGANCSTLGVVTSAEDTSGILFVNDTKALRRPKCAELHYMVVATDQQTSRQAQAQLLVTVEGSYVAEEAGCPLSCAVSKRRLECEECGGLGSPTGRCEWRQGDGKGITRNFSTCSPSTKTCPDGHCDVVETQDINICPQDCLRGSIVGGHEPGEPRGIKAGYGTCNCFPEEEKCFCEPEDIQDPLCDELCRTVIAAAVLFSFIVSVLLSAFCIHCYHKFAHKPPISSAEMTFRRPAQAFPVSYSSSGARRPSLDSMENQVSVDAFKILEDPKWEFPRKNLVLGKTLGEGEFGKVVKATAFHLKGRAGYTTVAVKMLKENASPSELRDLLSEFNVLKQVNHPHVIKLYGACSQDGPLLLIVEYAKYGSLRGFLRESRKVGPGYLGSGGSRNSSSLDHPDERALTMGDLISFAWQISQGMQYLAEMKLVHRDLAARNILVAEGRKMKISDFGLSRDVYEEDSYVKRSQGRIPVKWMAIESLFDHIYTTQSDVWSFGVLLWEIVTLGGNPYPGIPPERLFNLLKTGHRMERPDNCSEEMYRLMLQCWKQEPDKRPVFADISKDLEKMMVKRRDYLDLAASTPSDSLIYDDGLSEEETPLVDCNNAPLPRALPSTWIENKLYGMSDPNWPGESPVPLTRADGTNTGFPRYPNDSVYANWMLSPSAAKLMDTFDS

| Compound | IC50 [1] [nM] | Ratio AβTotal IC50/Aβ42 IC50 [2] | inhibition at 10 µM [3, 6] [%] | inhibition at 10 µM [3, 7] [%] | inhibition at 10 µM [4, 8] [%] | inhibition at 10 µM [4, 9] [%] | inhibition at 10 µM [5, 10] [%] | inhibition at 10 µM [5, 11] [%] |
| --- | --- | --- | --- | --- | --- | --- | --- | --- |
| Cc1cc(F)ccc1-c1cccn2nc(NC3CCc4c(cnn4CC(C)C)C3)nc12 (stereo not shown) [Example 45, [8-(4-fluoro-2-methyl-phenyl)-[1,2,4]triazolo[1,5-a]pyridine-2-yl]-(1-isobutyl-4,5,6,7-tetrahydro-1H-indazol-5-yl)-amine] | 3400 | 4 | < 40 | 9 | < 40 | 30 | < 40 | 7 |
| CCn1ncc2c1CCC(Nc1nc3c(-c4ccccc4C)cccn3n1)C2 (stereo not shown) [Example 56, (1-Ethyl-4,5,6,7-tetrahydro-1H-indazol-5-yl)-[8-(2-methyl-phenyl)-[1,2,4]triazolo[1,5-a]pyridine-2-yl]-amine] | 160 | 49 | < 40 | 20 | < 40 | 27 | < 40 | 1 |
| CCn1ncc2c1CCC(Nc1nc3c(-c4ccc(OC)nc4)cccn3n1)C2 (stereo not shown) [Example 71, (1-Ethyl-4,5,6,7-tetrahydro-1H-indazol-5-yl)-[8-(6-methoxy-pyridin-3-yl)-[1,2,4]triazolo[1,5-a]pyridine-2-yl]-amine] | 90 | 332 | < 40 | 19 | < 40 | 30 | < 40 | 23 |
| Cc1cc(F)ccc1-c1cccn2nc(Nc3ccc4c(cnn4C)c3)nc12 [Example 9, [8-(4-fluoro-2-methyl-phenyl)-[1,2,4]triazolo[1,5-a]pyridine-2-yl]-(1-methyl-1H-indazol-5-yl)-amine] | 1260 | 3 | < 40 | 35 | < 40 | 39 | < 40 | 3 |
| CCCn1ncc2c1CCC(Nc1nc3c(-c4ccc(F)cc4C)cccn3n1)C2 (stereo not shown) [Example 43, [8-(4-fluoro-2-methyl-phenyl)-[1,2,4]triazolo[1,5-a]pyridine-2-yl]-(1-propyl-4,5,6,7-tetrahydro-1H-indazol-5-yl)-amine] | 60 | 48 | < 40 | 15 | < 40 | 26 | < 40 | 3 |
| CCn1ncc2c1CC[C@@H](Nc1nc3c(-c4ccc(F)c(Cl)c4)cccn3n1)C2 [Example R-61, (R)-[8-(3-Chloro-4-fluoro-phenyl)-[1,2,4]triazolo[1,5-a]pyridine-2-yl]-(1-ethyl-4,5,6,7-tetrahydro-1H-indazol-5-yl)-amine] | 9 | 1098 | < 40 | 15 | < 40 | 20 | < 40 | 3 |
| CCn1ncc2c1CCC(Nc1nc3c(-c4ccc(C)nc4)cccn3n1)C2 (stereo not shown) [Example 67, (1-Ethyl-4,5,6,7-tetrahydro-1H-indazol-5-yl)-[8-(6-methyl-pyridin-3-yl)-[1,2,4]triazolo[1,5-a]pyridine-2-yl]-amine] | 670 | 45 | < 40 | 21 | < 40 | 24 | < 40 | 23 |
| CCn1ncc2c1CCC(Nc1nc3c(-c4cncc(OC)c4)cccn3n1)C2 (stereo not shown) [Example 70, (1-Ethyl-4,5,6,7-tetrahydro-1H-indazol-5-yl)-[8-(5-methoxy-pyridin-3-yl)-[1,2,4]triazolo[1,5-a]pyridine-2-yl]-amine] | 200 | 60 | < 40 | 18 | < 40 | 32 | < 40 | -3 |
